Measurements as given in patent publication US11591355B2 (Peloton Therapeutics, Inc., priority 2017, dated 2023).
pIC50: −log10 of the molar value.

Tests used:
[1] = target: T1, Human CD73 (Homo sapiens, UniProt P21589); assay: CD73 Enzyme Assay; type: biochemical; conditions: 0.25 nM hCD73, 25 μM AMP, kinetic read at 360 nm; read-out: CD73 Enzyme Assay IC50
T1 construct: purchased R&D Systems; host or cells: CHO cells
T1 sequence (P21589 27-549): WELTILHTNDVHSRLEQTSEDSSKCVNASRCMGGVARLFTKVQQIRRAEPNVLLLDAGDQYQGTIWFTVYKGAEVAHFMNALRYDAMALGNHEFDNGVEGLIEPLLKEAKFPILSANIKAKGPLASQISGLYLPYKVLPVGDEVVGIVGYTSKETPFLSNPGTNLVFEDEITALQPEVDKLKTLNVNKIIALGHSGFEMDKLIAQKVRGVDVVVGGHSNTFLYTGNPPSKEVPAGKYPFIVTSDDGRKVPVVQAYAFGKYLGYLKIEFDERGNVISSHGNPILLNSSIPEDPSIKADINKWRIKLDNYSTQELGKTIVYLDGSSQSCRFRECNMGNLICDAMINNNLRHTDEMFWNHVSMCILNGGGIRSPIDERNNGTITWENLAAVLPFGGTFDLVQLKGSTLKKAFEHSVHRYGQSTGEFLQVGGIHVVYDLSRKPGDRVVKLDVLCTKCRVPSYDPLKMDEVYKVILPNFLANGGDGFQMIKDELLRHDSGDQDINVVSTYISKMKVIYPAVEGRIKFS

[2] = target: T2, CD73 on U138 human neuroglioma cells (Homo sapiens, UniProt P21589); assay: CD73 Cell-Based Assay; conditions: U138 cells, AMP substrate, 2 hours at 37° C., inorganic phosphate by malachite green
T2 construct: U138 cells were obtained from ATCC and cultured in DMEM with 10% FBS; host or cells: U138 human neuroglioma cells
T2 sequence (P21589 27-549): T1 sequence (P21589 27-549)
Summary of the method: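 Whole U138 cells washed free of phosphate were incubated with 200 μM AMP (mixture concentration before equal-volume addition) plus compound in HEPES-buffered saline, pH 7.4, for 2 h at 37 °C, 5% CO2. Adenosine-forming activity read as inorganic phosphate released into supernatant by malachite green.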

| pIC50 [1] | pIC50 [2] | Compound |
| --- | --- | --- |
| > 8.00 | > 8.00 | N#Cc1nc(NC2CCC2)c2ccn([C@@H]3O[C@H](COCP(=O)(O)O)[C@@H](O)[C@H]3O)c2n1 [Compound 110, [(2R,3S,4R,5R)-5-[2-cyano-4-(cyclobutyl-amino)pyrrolo[2,3-d]-pyrimidin-7-yl]-3,4-dihydroxy-tetrahydro-furan-2-yl]methoxy-methylphosphonic acid] |
| > 8.00 | > 8.00 | O=P(O)(O)COC[C@H]1O[C@@H](n2ccc3c(NC4CCCCC4)nc(Cl)nc32)[C@H](O)[C@@H]1O [Compound 111, [(2R,3S,4R,5R)-5-[2-chloro-4-(cyclohexyl-amino)pyrrolo[2,3-d]-pyrimidin-7-yl]-3,4-dihydroxy-tetrahydro-furan-2-yl]methoxy-methylphosphonic acid] |
| 7.00 to 8.00 | 7.00 to 8.00 | O=P(O)(O)COC[C@H]1O[C@@H](n2ccc3c(N4CCC4)nc(Cl)nc32)[C@H](O)[C@@H]1O [Compound 112, [(2R,3S,4R,5R)-5-[4-(azetidin-1-yl)-2-chloro-pyrrolo[2,3-d]-pyrimidin-7-yl]-3,4-dihydroxy-tetrahydro-furan-2-yl]methoxy-methylphosphonic acid] |
| 7.00 to 8.00 | 7.00 to 8.00 | C[C@H](c1ccccc1)N(C)c1nc(C#N)nc2c1ncn2[C@@H]1O[C@H](COCP(=O)(O)O)[C@@H](O)[C@H]1O [Compound 113] |
| 7.00 to 8.00 | > 8.00 | C[C@@H](Nc1nc(Cl)nc2c1ccn2[C@@H]1O[C@H](COCP(=O)(O)O)[C@@H](O)[C@H]1O)c1ccc(C(F)(F)F)cc1 [Compound 114, [(2R,3S,4R,5R)-5-[2-chloro-4-[[(1R)-1-[4-(trifluoromethyl)-phenyl]ethyl]amino]-pyrrolo[2,3-d]-pyrimidin-7-yl]-3,4-dihydroxy-tetrahydro-furan-2-yl]methoxy-methylphosphonic acid] |
| > 8.00 | 7.00 to 8.00 | C[C@@H](Nc1nc(C#N)nc2c1ccn2[C@@H]1O[C@H](COCP(=O)(O)O)[C@@H](O)[C@H]1O)c1ccc(C(F)(F)F)cc1 [Compound 115, [(2R,3S,4R,5R)-5-[2-cyano-4-[[(1R)-1-[4-(trifluoromethyl)-phenyl]ethyl]amino]-pyrrolo[2,3-d]-pyrimidin-7-yl]-3,4-dihydroxy-tetrahydro-furan-2-yl]methoxy-methylphosphonic acid] |
| > 8.00 | > 8.00 | C[C@H](Nc1nc(Cl)nc2c1ccn2[C@@H]1O[C@H](COCP(=O)(O)O)[C@@H](O)[C@H]1O)c1ccc(F)cc1F [Compound 116, [(2R,3S,4R,5R)-5-[2-chloro-4-[[(1S)-1-(2,4-difluorophenyl)-ethyl]amino]pyrrolo-[2,3-d]pyrimidin-7-yl]-3,4-dihydroxy-tetrahydrofuran-2-yl]methoxymethyl-phosphonic acid] |
| 7.00 to 8.00 | > 8.00 | C[C@H](Nc1nc(Cl)nc2c1ccn2[C@@H]1O[C@H](COCP(=O)(O)O)[C@@H](O)[C@H]1O)c1ccc(C#N)cc1 [Compound 117, [(2R,3S,4R,5R)-5-[2-chloro-4-[[(1S)-1-(4-cyanophenyl)ethyl]-amino]pyrrolo[2,3-d]-pyrimidin-7-yl]-3,4-dihydroxy-tetrahydro-furan-2-yl]methoxy-methylphosphonic acid] |
| > 8.00 | > 8.00 | N#Cc1nc(NC2CCCCC2)c2ccn([C@@H]3O[C@H](COCP(=O)(O)O)[C@@H](O)[C@H]3O)c2n1 [Compound 119, [(2R,3S,4R,5R)-5-[2-cyano-4-(cyclohexyl-amino)pyrrolo[2,3-d]-pyrimidin-7-yl]-3,4-dihydroxy-tetrahydro-furan-2-yl]methoxy-methylphosphonic acid] |
| 6.00 to 7.00 | 7.00 to 8.00 | N#Cc1nc(NC2CCOCC2)c2ccn([C@@H]3O[C@H](COCP(=O)(O)O)[C@@H](O)[C@H]3O)c2n1 [Compound 120, [(2R,3S,4R,5R)-5-[2-cyano-4-(tetrahydro-pyran-4-ylamino)-pyrrolo[2,3-d]-pyrimidin-7-yl]-3,4-dihydroxy-tetrahydro-furan-2-yl]methoxy-methylphosphonic acid] |
| 7.00 to 8.00 | > 8.00 | O=P(O)(O)COC[C@H]1O[C@@H](n2ccc3c(NC4CCC(F)(F)CC4)nc(Cl)nc32)[C@H](O)[C@@H]1O [Compound 121, [(2R,3S,4R,5R)-5-[2-chloro-4-[(4,4-difluorocyclohexyl)-amino]pyrrolo[2,3-d]-pyrimidin-7-yl]-3,4-dihydroxy-tetrahydro-furan-2-yl]methoxy-methylphosphonic acid] |
| 7.00 to 8.00 | 7.00 to 8.00 | N#Cc1nc(N2CCC2)c2ccn([C@@H]3O[C@H](COCP(=O)(O)O)[C@@H](O)[C@H]3O)c2n1 [Compound 122, [(2R,3S,4R,5R)-5-[4-(azetidin-1-yl)-2-cyano-pyrrolo[2,3-d]-pyrimidin-7-yl]-3,4-dihydroxy-tetrahydro-furan-2-yl]methoxy-methylphosphonic acid] |
| > 8.00 | > 8.00 | O=P(O)(O)COC[C@H]1O[C@@H](n2ccc3c(N4CCC(F)(F)C4)nc(Cl)nc32)[C@H](O)[C@@H]1O [Compound 123, [(2R,3S,4R,5R)-5-[2-chloro-4-(3,3-difluoro-pyrrolidin-1-yl)pyrrolo-[2,3-d]pyrimidin-7-yl]-3,4-dihydroxy-tetrahydrofuran-2-yl]-methoxymethylphos-phonic acid] |
| > 8.00 | > 8.00 | C[C@H](c1ccccc1)N(C)c1nc(Cl)nc2c1ccn2[C@@H]1O[C@H](COCP(=O)(O)O)[C@@H](O)[C@H]1O [Compound 124, [(2R,3S,4R,5R)-5-[2-chloro-4-[methyl-[(1R)-1-phenylethyl]-amino]pyrrolo[2,3-d]-pyrimidin-7-yl]-3,4-dihydroxy-tetrahydro-furan-2-yl]methoxy-methylphosphonic acid] |
| > 8.00 | > 8.00 | N#Cc1nc(N2CCC(F)(F)C2)c2ccn([C@@H]3O[C@H](COCP(=O)(O)O)[C@@H](O)[C@H]3O)c2n1 [Compound 125, [(2R,3S,4R,5R)-5-[2-cyano-4-(3,3-difluoropyrrolidin-1-yl)-pyrrolo[2,3-d]-pyrimidin-7-yl]-3,4-dihydroxy-tetrahydro-furan-2-yl]methoxy-methylphosphonic acid] |
| 7.00 to 8.00 | > 8.00 | O=P(O)(O)COC[C@H]1O[C@@H](n2ccc3c(N4CCCCC4)nc(Cl)nc32)[C@H](O)[C@@H]1O [Compound 126, [(2R,3S,4R,5R)-5-[2-chloro-4-(1-piperidyl)-pyrrolo[2,3-d]-pyrimidin-7-yl]-3,4-dihydroxy-tetrahydro-furan-2-yl]methoxy-methylphosphonic acid] |
| 7.00 to 8.00 | 7.00 to 8.00 | N#Cc1nc(N2CCOCC2)c2ccn([C@@H]3O[C@H](COCP(=O)(O)O)[C@@H](O)[C@H]3O)c2n1 [Compound 127, [(2R,3S,4R,5R)-5-(2-cyano-4-morpholino-pyrrolo[2,3-d]-pyrimidin-7-yl)-3,4-dihydroxy-tetrahydro-furan-2-yl]methoxy-methylphosphonic acid] |
| 7.00 to 8.00 | 7.00 to 8.00 | O=P(O)(O)COC[C@H]1O[C@@H](n2ccc3c(N4CCC(F)(F)CC4)nc(Cl)nc32)[C@H](O)[C@@H]1O [Compound 128, [(2R,3S,4R,5R)-5-[2-chloro-4-(4,4-difluoro-1-piperidyl)pyrrolo-[2,3-d]pyrimidin-7-yl]-3,4-dihydroxy-tetrahydrofuran-2-yl]-methoxymethylphos-phonic acid] |
| 7.00 to 8.00 | 7.00 to 8.00 | N#Cc1nc(N2CCC(F)(F)CC2)c2ccn([C@@H]3O[C@H](COCP(=O)(O)O)[C@@H](O)[C@H]3O)c2n1 [Compound 129, [(2R,3S,4R,5R)-5-[2-cyano-4-(4,4-difluoro-1-piperidyl)pyrrolo-[2,3-d]pyrimidin-7-yl]-3,4-dihydroxy-tetrahydrofuran-2-yl]-methoxymethylphos-phonic acid] |
| 7.00 to 8.00 | 7.00 to 8.00 | C[C@@H](Nc1nc(Cl)nc2c1c(F)cn2[C@@H]1O[C@H](COCP(=O)(O)O)[C@@H](O)[C@H]1O)c1ccccc1 [Compound 130, [(2R,3S,4R,5R)-5-[2-chloro-5-fluoro-4-[[(1R)-1-phenylethyl]-amino]pyrrolo[2,3-d]-pyrimidin-7-yl]-3,4-dihydroxy-tetrahydro-furan-2-yl]methoxy-methylphosphonic acid] |
| > 8.00 | > 8.00 | C[C@@H](c1ccccc1)N(C)c1nc(Cl)nc2c1ccn2[C@@H]1O[C@H](COCP(=O)(O)O)[C@@H](O)[C@H]1O [Compound 131, [(2R,3S,4R,5R)-5-[2-chloro-4-[methyl-[(1S)-1-phenylethyl]-amino]pyrrolo[2,3-d]-pyrimidin-7-yl]-3,4-dihydroxy-tetrahydro-furan-2-yl]methoxy-methylphosphonic acid] |
